These results are taken from PubChem BioAssay AID250 (DTP/NCI, 2004).

The experiment has as its system BDF1 mice, L1210 leukemia sc, survival T/C. Put plainly: NCI In Vivo Anticancer Drug Screen. Data for tumor model L1210 Leukemia (subcutaneous) in B6D2F1 (BDF1) mice. The conditions noted are these: endpoint: median survival time, higher = longer survival. In outline: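 Transplantable tumor-bearing mice; survival or tumor size recorded; result = T/C, treated vs vehicle control.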

Where [1] appears, read: dose: 39.0 mg/kg/injection, schedule: Q01DX Z (sc), vehicle: saline.
Setting [2] is: dose: 65.0 mg/kg/injection, schedule: Q01DX Z (sc), vehicle: saline.
[3] abbreviates: dose: 108.0 mg/kg/injection, schedule: Q01DX Z (sc), vehicle: saline.
The mark [4] stands for this setting: dose: 180.0 mg/kg/injection, schedule: Q01DX Z (sc), vehicle: saline.
Setting [5] is: dose: 1.08 mg/kg/injection, schedule: Q01DX Z (sc), vehicle: water.
[6] abbreviates: dose: 1.8 mg/kg/injection, schedule: Q01DX Z (sc), vehicle: water.
Where [7] appears, read: dose: 5.0 mg/kg/injection, schedule: Q01DX Z (sc), vehicle: water.
The mark [8] stands for this setting: dose: 8.4 mg/kg/injection, schedule: Q01DX Z (sc), vehicle: water.
The mark [9] stands for this setting: dose: 14.0 mg/kg/injection, schedule: Q01DX Z (sc), vehicle: water.
[10] abbreviates: dose: 108.0 mg/kg/injection, schedule: Q01DX Z (sc), vehicle: methylcellulose (MC).
[11] abbreviates: dose: 180.0 mg/kg/injection, schedule: Q01DX Z (sc), vehicle: methylcellulose (MC).
[12] abbreviates: dose: 300.0 mg/kg/injection, schedule: Q01DX Z (sc), vehicle: methylcellulose (MC).
The mark [13] stands for this setting: dose: 500.0 mg/kg/injection, schedule: Q01DX Z (sc), vehicle: methylcellulose (MC).
The mark [14] stands for this setting: dose: 23.0 mg/kg/injection, schedule: Q01DX Z (sc), vehicle: carboxymethylcellulose (CMC).
Setting [15] is: dose: 39.0 mg/kg/injection, schedule: Q01DX Z (sc), vehicle: carboxymethylcellulose (CMC).
[16] abbreviates: dose: 65.0 mg/kg/injection, schedule: Q01DX Z (sc), vehicle: carboxymethylcellulose (CMC).

The structures appear in SMILES notation. Toxic doses and inconclusive results are not listed.

In the case of `CCN(CC)CCNC(=O)N(Cc1ccccc1)c1ccccc1`, the T/C was 100 % of control (dose: 22.0 mg/kg/injection, schedule: Q01DX Z (sc), vehicle: methylcellulose (MC)); 100 % of control (dose: 37.0 mg/kg/injection, schedule: Q01DX Z (sc), vehicle: methylcellulose (MC)); 100 % of control (dose: 62.0 mg/kg/injection, schedule: Q01DX Z (sc), vehicle: methylcellulose (MC)); 100 % of control (dose: 104.0 mg/kg/injection, schedule: Q01DX Z (sc), vehicle: methylcellulose (MC)); 100 % of control (dose: 173.0 mg/kg/injection, schedule: Q01DX Z (sc), vehicle: methylcellulose (MC)); 100 % of control (dose: 288.0 mg/kg/injection, schedule: Q01DX Z (sc), vehicle: methylcellulose (MC)). The T/C by setting is: (dose: 480.0 mg/kg/injection, schedule: Q01DX Z (sc), vehicle: methylcellulose (MC)) 100 % of control; (dose: 800.0 mg/kg/injection, schedule: Q01DX Z (sc), vehicle: methylcellulose (MC)) 100 % of control.
Turning to `O=c1[nH]c(=O)n(C2CC(O)C(CO)O2)cc1I` (stereo not drawn), the T/C by setting is: (dose: 14.0 mg/kg/injection, schedule: Q01DX Z (sc), vehicle: saline) 100 % of control; (dose: 23.0 mg/kg/injection, schedule: Q01DX Z (sc), vehicle: saline) 100 % of control; under setting [1], 106 % of control; under setting [2], 103 % of control; under setting [3], 103 % of control; under setting [4], 100 % of control.
Consider `O=C(O)CCCc1ccc(N(CCCl)CCCl)cc1`, for which the T/C (dose: 8.4 mg/kg/injection, schedule: Q01DX Z (sc), vehicle: methylcellulose (MC)) was 100 % of control; the T/C (dose: 14.0 mg/kg/injection, schedule: Q01DX Z (sc), vehicle: methylcellulose (MC)) is 100 % of control; the T/C (dose: 23.0 mg/kg/injection, schedule: Q01DX Z (sc), vehicle: methylcellulose (MC)) is 100 % of control; the T/C (dose: 39.0 mg/kg/injection, schedule: Q01DX Z (sc), vehicle: methylcellulose (MC)) is 110 % of control.
Take `O=C(Nc1ccc(NC2=NCCN2)cc1)c1ccc(C(=O)Nc2ccc(NC3=NCCN3)cc2)cc1`: the T/C under setting [5] was 110 % of control; the T/C under setting [6] is 110 % of control; the T/C under setting [7] was 260 % of control; the T/C under setting [8] was 175 % of control; the T/C under setting [9] was 150 % of control.
Turning to `c1ccc(CNc2ncnc3[nH]ncc23)cc1`, the T/C was 115 % of control (dose: 23.3 mg/kg/injection, schedule: Q01DX Z (sc), vehicle: methylcellulose (MC)); 120 % of control (dose: 64.8 mg/kg/injection, schedule: Q01DX Z (sc), vehicle: methylcellulose (MC)); 110 % of control under setting [10]; 110 % of control under setting [11]; 100 % of control under setting [12]; 100 % of control under setting [13].
With `CS(=O)(=O)OCCCNCCCOS(C)(=O)=O`, the T/C was 111 % of control (dose: 15.0 mg/kg/injection, schedule: Q01DX009 (sc), vehicle: saline); 108 % of control (dose: 30.0 mg/kg/injection, schedule: Q01DX009 (sc), vehicle: saline); 118 % of control (dose: 39.0 mg/kg/injection, schedule: Q04DX003 (ip), vehicle: saline); 93 % of control (dose: 180.0 mg/kg/injection, schedule: Q04DX003 (ip), vehicle: saline).
In the case of `CN(C)c1ccc(/C=C/c2ccnc3ccccc23)cc1`, the T/C reads like this: (dose: 0.65 mg/kg/injection, schedule: Q01DX Z (sc), vehicle: water) 100 % of control; under setting [5], 100 % of control; under setting [6], 104 % of control; (dose: 3.0 mg/kg/injection, schedule: Q01DX Z (sc), vehicle: water) 100 % of control; under setting [7], 100 % of control; (dose: 6.0 mg/kg/injection, schedule: Q01DX Z (sc), vehicle: water) 100 % of control. Also, the T/C was 100 % of control under setting [8]; 100 % of control (dose: 10.0 mg/kg/injection, schedule: Q01DX Z (sc), vehicle: water); 100 % of control under setting [9]; 100 % of control (dose: 17.0 mg/kg/injection, schedule: Q01DX Z (sc), vehicle: water); 100 % of control (dose: 28.0 mg/kg/injection, schedule: Q01DX Z (sc), vehicle: water); 100 % of control (dose: 47.0 mg/kg/injection, schedule: Q01DX Z (sc), vehicle: water). The T/C is, setting by setting: (dose: 78.0 mg/kg/injection, schedule: Q01DX Z (sc), vehicle: water) 110 % of control; (dose: 130.0 mg/kg/injection, schedule: Q01DX Z (sc), vehicle: water) 100 % of control.
As for `O=NN(CCCl)C(=O)NC1CC2CCC1C2` (stereo not drawn), the T/C was 305 % of control (dose: 23.0 mg/kg/injection, schedule: Q01DX Z (oral), vehicle: carboxymethylcellulose (CMC)); 321 % of control under setting [14]; 542 % of control (dose: 39.0 mg/kg/injection, schedule: Q01DX Z (oral), vehicle: carboxymethylcellulose (CMC)); 500 % of control under setting [15]; 236 % of control (dose: 65.0 mg/kg/injection, schedule: Q01DX Z (oral), vehicle: carboxymethylcellulose (CMC)); 289 % of control under setting [16]. Also, the T/C (dose: 108.0 mg/kg/injection, schedule: Q01DX Z (oral), vehicle: carboxymethylcellulose (CMC)) was 178 % of control.
`CC(=O)c1ccc(NC(=O)N(CCCl)N=O)cc1`: the T/C is 183 % of control under setting [15] and 211 % of control under setting [16].
Regarding `Cc1cc2nc3c(=O)[nH]c(=O)nc-3n(CC(O)C(O)C(O)C(O)CO)c2cc1C` (stereo not drawn), the T/C runs as follows: under setting [11], 100 % of control; under setting [12], 100 % of control; under setting [13], 100 % of control.
As for `Cn1cc(NC(=O)c2cc(NC(=O)CN=C(N)N)cn2C)cc1C(=O)NCCC(=N)N`, the T/C was 100 % of control (dose: 6.0 mg/kg/injection, schedule: Q01DX Z (sc), vehicle: methylcellulose (MC)); 100 % of control (dose: 12.0 mg/kg/injection, schedule: Q01DX Z (sc), vehicle: methylcellulose (MC)); 100 % of control (dose: 24.0 mg/kg/injection, schedule: Q01DX Z (sc), vehicle: methylcellulose (MC)).
On to `CCOC(N)=O`, for which the T/C is 95 % of control under setting [2]; 100 % of control under setting [3]; 100 % of control under setting [4]; 100 % of control (dose: 300.0 mg/kg/injection, schedule: Q01DX Z (sc), vehicle: saline); 90 % of control (dose: 500.0 mg/kg/injection, schedule: Q01DX Z (sc), vehicle: saline).
As for `OC(c1ccccc1)c1nc2ccccc2[nH]1` (stereo not drawn), the T/C reads like this: under setting [10], 100 % of control; under setting [11], 100 % of control; under setting [12], 100 % of control; under setting [13], 100 % of control; (dose: 840.0 mg/kg/injection, schedule: Q01DX Z (sc), vehicle: methylcellulose (MC)) 100 % of control.
As for `COCCCN=C(N)c1ccc(NC(=O)c2ccc(C(=O)Nc3ccc(C(N)=NCCCOC)cc3)cc2)cc1`, the T/C reads like this: (dose: 8.4 mg/kg/injection, schedule: Q01DX Z (sc), vehicle: saline) 158 % of control; under setting [1], 100 % of control.
As for `CN(C)c1ccc(/C=C/c2cc[n+](C)c3ccccc23)cc1`, the T/C is, setting by setting: (dose: 0.65 mg/kg/injection, schedule: Q01DX Z (sc), vehicle: methylcellulose (MC)) 109 % of control; (dose: 1.08 mg/kg/injection, schedule: Q01DX Z (sc), vehicle: methylcellulose (MC)) 109 % of control; (dose: 1.8 mg/kg/injection, schedule: Q01DX Z (sc), vehicle: methylcellulose (MC)) 109 % of control; (dose: 3.0 mg/kg/injection, schedule: Q01DX Z (sc), vehicle: methylcellulose (MC)) 109 % of control.
Turning to `CN(C)N=Nc1ccc(CCCC(=O)NN)cc1`, the T/C is 109 % of control under setting [14]; 118 % of control under setting [15]; 109 % of control under setting [16]; 109 % of control (dose: 108.0 mg/kg/injection, schedule: Q01DX Z (sc), vehicle: carboxymethylcellulose (CMC)); 113 % of control (dose: 180.0 mg/kg/injection, schedule: Q01DX Z (sc), vehicle: carboxymethylcellulose (CMC)).
